Columns and labels:
Assay in all cases: pIC50, kinobeads binding competition
UniProt Q14164 = molecular target: T1, UniProt Q14164
T1 sequence (whole entry): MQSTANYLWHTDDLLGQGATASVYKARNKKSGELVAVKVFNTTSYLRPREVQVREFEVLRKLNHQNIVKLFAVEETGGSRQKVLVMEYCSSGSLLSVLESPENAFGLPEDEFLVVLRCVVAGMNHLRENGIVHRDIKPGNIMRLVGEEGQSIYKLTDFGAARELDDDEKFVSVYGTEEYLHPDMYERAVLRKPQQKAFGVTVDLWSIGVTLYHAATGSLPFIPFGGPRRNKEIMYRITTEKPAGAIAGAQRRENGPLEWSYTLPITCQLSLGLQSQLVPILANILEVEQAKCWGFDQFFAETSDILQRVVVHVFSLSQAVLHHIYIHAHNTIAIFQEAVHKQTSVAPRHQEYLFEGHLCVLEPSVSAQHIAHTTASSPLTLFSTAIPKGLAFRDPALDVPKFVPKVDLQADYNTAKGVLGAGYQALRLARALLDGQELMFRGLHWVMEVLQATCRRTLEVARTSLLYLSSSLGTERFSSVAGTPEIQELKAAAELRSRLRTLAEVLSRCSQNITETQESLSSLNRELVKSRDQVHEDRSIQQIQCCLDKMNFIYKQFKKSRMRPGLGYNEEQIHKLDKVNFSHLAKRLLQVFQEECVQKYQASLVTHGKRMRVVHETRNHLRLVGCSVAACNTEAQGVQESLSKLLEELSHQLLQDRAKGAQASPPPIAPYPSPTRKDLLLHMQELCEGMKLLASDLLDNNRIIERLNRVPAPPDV
Method in brief: (§1)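 Either living Jurkat cells (60 min at 37 °C, then lysis) or lysates (60 min at 4 °C) were treated with nine compound concentrations from a top of 30 μM, in 1:4 steps for cells and 1:5 steps for lysates. The lysates were from Jurkat cells or a 1:1:1:1 mix of HEK293, K-562, HepG2 and placenta. Kinobeads-bound proteins were digested and quantified by TMT10 LC-MS/MS. pIC50 was calculated by logistic dose-response fitting (R drc package) of fold changes relative to vehicle, in biological duplicates.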

CASK = molecular target: T2, CASK (UniProt O14936); settings: cell material: Lysate mix
T2 sequence (whole entry): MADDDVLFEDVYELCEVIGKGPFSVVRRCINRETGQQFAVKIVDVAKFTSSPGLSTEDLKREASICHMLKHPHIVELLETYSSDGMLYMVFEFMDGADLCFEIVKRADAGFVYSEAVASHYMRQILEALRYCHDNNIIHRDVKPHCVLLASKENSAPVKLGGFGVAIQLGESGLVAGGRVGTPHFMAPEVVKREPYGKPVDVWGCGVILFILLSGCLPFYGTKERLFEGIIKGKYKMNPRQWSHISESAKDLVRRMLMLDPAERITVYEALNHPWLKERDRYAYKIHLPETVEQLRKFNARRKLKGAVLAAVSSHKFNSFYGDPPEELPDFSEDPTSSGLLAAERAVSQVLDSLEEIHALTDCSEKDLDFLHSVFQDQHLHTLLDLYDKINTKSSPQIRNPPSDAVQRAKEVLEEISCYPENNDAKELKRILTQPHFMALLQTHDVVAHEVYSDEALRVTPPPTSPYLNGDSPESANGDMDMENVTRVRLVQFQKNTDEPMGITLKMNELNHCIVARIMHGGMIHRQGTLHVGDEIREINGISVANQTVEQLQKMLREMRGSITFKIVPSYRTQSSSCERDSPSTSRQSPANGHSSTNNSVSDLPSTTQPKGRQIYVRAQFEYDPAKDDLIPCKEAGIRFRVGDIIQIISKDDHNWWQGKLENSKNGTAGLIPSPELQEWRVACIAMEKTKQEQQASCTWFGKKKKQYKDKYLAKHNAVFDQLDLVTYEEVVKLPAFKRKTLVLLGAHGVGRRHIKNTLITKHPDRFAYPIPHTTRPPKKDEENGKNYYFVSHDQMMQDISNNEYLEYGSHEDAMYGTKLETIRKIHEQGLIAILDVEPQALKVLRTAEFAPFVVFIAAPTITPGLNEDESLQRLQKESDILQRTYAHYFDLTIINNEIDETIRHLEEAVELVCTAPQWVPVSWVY
Method in brief: as §1

LATS2 = molecular target: T3, LATS2 (UniProt Q9NRM7)
T3 sequence (whole entry): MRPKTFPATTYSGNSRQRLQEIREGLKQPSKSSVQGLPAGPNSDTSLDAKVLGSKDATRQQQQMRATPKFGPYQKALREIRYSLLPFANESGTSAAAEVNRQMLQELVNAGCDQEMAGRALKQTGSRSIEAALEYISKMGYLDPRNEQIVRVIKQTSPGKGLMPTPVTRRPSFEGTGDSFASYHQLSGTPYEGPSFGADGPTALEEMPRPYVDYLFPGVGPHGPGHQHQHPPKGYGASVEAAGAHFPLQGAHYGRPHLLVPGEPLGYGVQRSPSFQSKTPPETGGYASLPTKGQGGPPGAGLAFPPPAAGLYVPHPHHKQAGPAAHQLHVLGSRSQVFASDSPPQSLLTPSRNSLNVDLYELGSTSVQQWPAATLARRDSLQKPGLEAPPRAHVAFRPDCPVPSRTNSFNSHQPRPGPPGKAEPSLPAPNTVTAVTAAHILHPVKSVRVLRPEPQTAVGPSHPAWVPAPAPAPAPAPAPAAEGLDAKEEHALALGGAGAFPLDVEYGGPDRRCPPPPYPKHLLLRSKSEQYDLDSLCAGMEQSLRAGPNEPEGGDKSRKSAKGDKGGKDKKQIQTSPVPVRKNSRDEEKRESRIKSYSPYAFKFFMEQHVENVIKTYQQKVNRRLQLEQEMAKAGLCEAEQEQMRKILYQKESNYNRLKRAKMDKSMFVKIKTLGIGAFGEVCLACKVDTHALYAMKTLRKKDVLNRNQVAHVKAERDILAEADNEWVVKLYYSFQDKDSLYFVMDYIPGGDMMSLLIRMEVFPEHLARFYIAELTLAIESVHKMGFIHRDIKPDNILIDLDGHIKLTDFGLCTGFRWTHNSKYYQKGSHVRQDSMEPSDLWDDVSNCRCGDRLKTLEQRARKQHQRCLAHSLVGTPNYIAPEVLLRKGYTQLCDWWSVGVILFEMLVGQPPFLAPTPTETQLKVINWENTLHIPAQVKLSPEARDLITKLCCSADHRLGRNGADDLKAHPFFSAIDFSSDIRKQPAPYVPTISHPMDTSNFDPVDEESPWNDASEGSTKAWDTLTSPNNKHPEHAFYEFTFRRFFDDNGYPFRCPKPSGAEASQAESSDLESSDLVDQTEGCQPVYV
Method in brief: as §1

KIT = KIT (UniProt P10721); settings: cell material: Lysate mix
Sequence of KIT (P10721 whole entry): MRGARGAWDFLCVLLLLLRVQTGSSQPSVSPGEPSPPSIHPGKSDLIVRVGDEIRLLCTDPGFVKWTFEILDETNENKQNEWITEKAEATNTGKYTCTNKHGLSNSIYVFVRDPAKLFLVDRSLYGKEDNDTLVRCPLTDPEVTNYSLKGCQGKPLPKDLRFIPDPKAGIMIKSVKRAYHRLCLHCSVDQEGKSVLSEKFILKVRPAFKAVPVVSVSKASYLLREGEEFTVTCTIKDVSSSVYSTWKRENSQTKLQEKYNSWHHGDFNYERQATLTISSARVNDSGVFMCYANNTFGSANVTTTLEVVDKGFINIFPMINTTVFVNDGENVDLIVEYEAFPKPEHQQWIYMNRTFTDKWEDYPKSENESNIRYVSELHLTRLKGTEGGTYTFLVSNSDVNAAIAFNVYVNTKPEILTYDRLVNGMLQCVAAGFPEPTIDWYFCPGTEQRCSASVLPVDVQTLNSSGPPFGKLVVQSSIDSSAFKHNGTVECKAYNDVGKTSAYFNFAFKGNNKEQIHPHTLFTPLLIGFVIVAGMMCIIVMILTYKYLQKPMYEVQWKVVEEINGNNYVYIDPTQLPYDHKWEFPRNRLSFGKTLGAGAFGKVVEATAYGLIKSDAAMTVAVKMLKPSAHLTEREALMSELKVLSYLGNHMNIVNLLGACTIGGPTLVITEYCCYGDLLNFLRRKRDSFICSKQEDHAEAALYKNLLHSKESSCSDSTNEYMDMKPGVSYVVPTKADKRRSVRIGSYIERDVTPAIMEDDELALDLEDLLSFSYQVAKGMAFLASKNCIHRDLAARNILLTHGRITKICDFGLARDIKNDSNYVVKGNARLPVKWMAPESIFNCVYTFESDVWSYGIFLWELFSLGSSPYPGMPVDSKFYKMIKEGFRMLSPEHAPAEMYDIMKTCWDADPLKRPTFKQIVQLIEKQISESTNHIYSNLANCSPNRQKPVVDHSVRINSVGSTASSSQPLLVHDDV
Method in brief: as §1

pIC50 (UniProt Q14164; cell material: Lysate mix)	pIC50 (CASK)	pIC50 (LATS2; cell material: Jurkat lysate)	pIC50 (LATS2; cell material: Lysate mix)	pIC50 (KIT)	Compound	pIC50 (UniProt Q14164; cell material: Jurkat cells)	pIC50 (UniProt Q14164; cell material: Jurkat lysate)	pIC50 (LATS2; cell material: Jurkat cells)
< 4.52			< 4.52		Cc1cc(Nc2cc(C(=O)NCCNC(=O)OC3CC/C=C/CCC3)nc(N3CCN(Cc4ccc(S(=O)(=O)F)cc4)CC3)n2)n[nH]1 (stereo not given)			
5.08	< 4.52		5.31	< 4.52	CCNC(=O)c1cc(Nc2cc(C3CC3)[nH]n2)nc(N2CCN(Cc3ccc(S(=O)(=O)F)cc3)CC2)n1			
< 4.52	< 4.52		4.77	< 4.52	C#CCNC(=O)c1cc(Nc2cc(C)[nH]n2)nc(N2CCN(Cc3ccc(S(=O)(=O)F)cc3)CC2)n1			

Second part, the compound before the results:

Compound	pIC50 (UniProt Q14164; cell material: Lysate mix)	pIC50 (CASK)	pIC50 (LATS2; cell material: Jurkat lysate)	pIC50 (LATS2; cell material: Lysate mix)	pIC50 (KIT)	pIC50 (UniProt Q14164; cell material: Jurkat cells)	pIC50 (UniProt Q14164; cell material: Jurkat lysate)	pIC50 (LATS2; cell material: Jurkat cells)
O=C(NCCNC(=O)c1cc(Nc2cc(C3CC3)[nH]n2)nc(N2CCN(Cc3ccc(S(=O)(=O)F)cc3)CC2)n1)OC1CC/C=C/CCC1 (stereo not given)	< 4.52	< 4.52	< 4.52	< 4.52		5.28	< 4.52	5.54
CCNC(=O)c1cc(Nc2cc(C)[nH]n2)nc(N2CCN(Cc3ccc(S(=O)(=O)F)cc3)CC2)n1		< 4.52			< 4.52			
C#CCNC(=O)c1cc(Nc2cc(C3CC3)[nH]n2)nc(N2CCN(Cc3ccc(S(=O)(=O)F)cc3)CC2)n1	5.25			5.84	< 4.52	6	4.89	5.82
